Laboratory results reported in patent US12480950B2, “AKT-specific capture agents, compositions, and methods of using and making” (California Institute of Technology, priority 2011, dated 2025).
Read-outs that look alike come from different tables or passages of the source. Blank lines part the entries; values can stand above or below the molecule they belong to. Bridge positions count the residues as written; N and C are the ends. Square brackets hold non-standard residues; d marks the D form. Ends that are not written are not given here. I, II: the chains in the order shown. dPra = C#CC[C@@H](N)C(=O)O; C8N3 = not defined here

Columns and labels:
Akt [1] = target: T1, Akt (Homo sapiens, UniProt P31751); experiment: Detection of Akt from OVCAR3 cell lysate by anti-Ser474 Akt2 capture agents; type: binding
T1 construct: endogenous in cells; host or cells: OVCAR3
Description: The characteristics of this best ligand were improved through use of sequential in situ click chemistry, as described in Capture Agents and Related Compositions, Methods, and Systems CIT 5164-P; and Akt-Specific Capture Agents, Compositions, and Methods of Using and Making. CIT 5917-P, Agnew, et al., Angew. Chem. 121, p 5044-5048 (2009), and Millward, et al., J. Am. Chem. Soc. 133, 1820 (2011), incorporated herein by reference in their entireties. For these steps, the capture agent that was identified in Steps (1)-(4) was improved into a biligand (FIG. 36b), and then a triligand (FIG. 36c).

Akt [2] = experiment: Immunofluorescent imaging of Akt in fixed OVCAR3 cells; type: cell-based; settings: unstimulated or EGF-treated
Protocol: OVCAR3 cells were grown on polylysine coated coverslips and treated with either 500 ng/mL EGF (Sigma) or vehicle control for 10 minutes. Cells were then fixed with 10% formaldehyde for 15 min at 37° C., washed with PBS, permeablized by incubating with 0.1% Triton X-100 for 10 min at room temperature, and blocked with 5% goat serum. Permeabilized cells were stained with either a fluorescein-conjugated Pan Akt antibody (R&D Systems IC2055F, 10 μg/mL) overnight or 1 μM fluorescein conjugated biligand for 1 hour. Images were acquired using a Zeiss Pascal 5 Laser Scanning Microscope (Caltech Biological Imaging Center) and surface plots were generated with ImageJ software (NIH). For this assay, Akt was expected to locate to the cell membrane following stimulation of a receptor tyrosine kinase such as epidermal growth factor receptor (EGFR) by its ligand (EGF). Images of unstimulated and stimulated cells clearly reveal that this was the case (FIG. 18).

Akt2 = target: T2, Akt2 (Homo sapiens, UniProt P31751); experiment: Akt2 kinase activity assay, p-GSK-3a/b Western blot; type: biochemical; settings: p-GSK-3a/b abundance, active Akt2
T2 construct: purchased Abcam
Description: PCC compositions, developed using the epitope targeting strategy, make non-traditional enzyme inhibitors. If Akt2 is activated by phosphorylation of Ser474 then, in that state, it phosphorylates GSK-3a/b. If it is further activated via a steric effect, then it will produce more p-GSK-3a/b. If that same Akt2 is inhibited, then it will produce less p-GSK-3a/b. Thus, the signature of Akt inhibition (or activation) is read out as p-GSK-3a/b abundance, relative to the DMSO control. Assays are shown at right in the form of Western Blots. The DMSO column gives the baseline level. The n-terminal triligand the biligand, the dimer of the n-terminal triligand, and the commercial monoclonal antibody all activate Akt relative to DMSO. The c-terminal triligand inhibits Akt. The ‘hi’ and ‘low’ blots correspond to long and short development times, respectively. The Akt2 protein used for the inhibition assay is active Akt2 that is phosphorylated at Thr308, and is at least partially phosphorylated at Ser474, since the antibody for pSer474 detects the pSer474.

Akt1 = experiment: Specificity ELISA, immobilized ligand probed with His-tagged kinases; parameters: species or system H. sapiens; settings: A450 normalized to Akt1-S473E binding; kinase panel
Protocol: (§1) Biotinylated ligand was immobilized on Streptavidin plates and probed with 25 nM His-tagged kinase followed by anti-Histag antibody-HRP conjugate. Values represent the mean A450 obtained from three experiments after normalization to Akt1-S473E binding. The error bars show the standard error.
(§2) The specificity of the anchor ligand, biligand, and triligand developed in Example 1 was analyzed using a battery of protein kinases. […] Akt1-S473E was expressed and purified as described above.
(§3) The relative affinity of each kinase was determined by probing with an anti-His6 antibody and normalizing the response to Akt1-S473E. All proteins were diluted in Akt blocking buffer to a final concentration of 24 nM prior to use. Ligands were diluted in Akt blocking buffer to a final concentration of 2.5 μM prior to use. 100 μL of each ligand (250 pmol) was added to each well of a HBC streptavidin-coated 96-well plate. The ligands were bound at 4° C. for 1 hour followed by addition of D-biotin to a final concentration of 500 μM. After 10 minutes at 4° C., the wells were washed three times with Akt blocking buffer and blocked overnight in 5% non-fat milk.
(§4) The wells were washed three times in Akt blocking buffer and 50 μL of active protein was applied to each well. After binding for 120 minutes at 4° C., the wells were washed three times in Akt blocking buffer to remove unbound protein. 50 μL of horseradish peroxidase-conjugated Anti-His6 antibody was added at a dilution of 1:100 (His Probe (H-3) HRP conjugate, Santa Cruz Biotechnology). The antibody-HRP conjugate was incubated for 60 minutes and the wells were washed 3 times in TBST and once in TBS. 50 μL of peroxidase substrate (KPL) was added and the resulting color change was quenched with 50 μL 1 M H2SO4. The A450 measured on a 96-well plate reader. […] The mean value for the triplicates was calculated and plotted and the error bars were generated from the standard error of the mean (GraphPad Prism).

Akt1-S473E = settings: SPR, from kinetic parameters, 10° C., Akt1-S473E 9000 nM to 1 nM
Protocol: For this experiment, the biotinylated triligand was immobilized on a streptavidin-derivatized biacore chip and probed with Akt-S473E at concentrations ranging from 9 μM to 1 nM.
Triligand binding affinity was further analyzed by SPR using a Biacore T100. A Streptavidin Chip (Series S, G.E. Healthcare) was conditioned as recommended by the manufacturer. Biotinylated ligand was diluted into HBSP+ Buffer (G.E. Healthcare) to a final concentration of 100 nM and 137 RU was immobilized on the chip. Akt1-S473E was prepared as described previously and subjected to buffer exchange into HBSP+ using Zeba Desalting Columns (Pierce). Serial dilutions of the enzyme were made in HBSP+ buffer (9000 nM to 1 nM) and flowed over the chip at 50 μL/minute. Binding and dissociation were carried out at 10° C. with a contact time of 360 seconds, a dissociation time of 400 seconds, and a stabilization time of 200 seconds. The response was corrected using an unmodified reference flow cell. Kinetic constants were obtained from the sensograms and used to calculate the dissociation constant.

Akt1-S473E-T308P = target: Akt1-S473E-T308P
Description: FIG. 22A: Velocity vs. [Peptide substrate] with varying concentration of inhibitory triligand. FIG. 22B: Velocity vs. [ATP] with varying concentration of inhibitory triligand.
FIGS. 23A-23D show determination of Ki′ and inhibition mode for triligand with respect to peptide substrate. FIG. 23A: Plot of 1/KM(app) vs. [Triligand]. KM(app) were obtained from nonlinear regression analysis of velocity vs. [Peptide] curves obtained with varied concentrations of triligand (Graphpad). The error bars represent the standard error of KM(app) by nonlinear regression. 95% confidence intervals are shown as dotted lines. […] FIG. 23B: Plot of 1/Vmax(app) vs. [Triligand]. Values for Vmax(app) and standard error were obtained by nonlinear regression as described above. […] FIG. 23C: Dixon plot of 1/v vs. [Triligand] at various [Peptide]. Data from low peptide concentrations were removed to account for possible substrate depletion. […] FIG. 23D: Cornish-Bowden plot of [Peptide]/v vs. [Triligand] at various [Peptide]. The intersection of the lines gives the −Ki′.
FIG. 24A: Plot of 1/KM(app) vs. [Triligand]. KM(app) were obtained from nonlinear regression analysis of velocity vs. [ATP] curves obtained with varied concentrations of triligand (Graphpad). The error bars represent the standard error of KM(app) by nonlinear regression. […] FIG. 24B: Plot of 1/Vmax(app) vs. [Triligand]. […] FIG. 24C: Dixon plot of 1/v vs. [Triligand] at various [ATP]. Data from low ATP concentrations were removed due high counting error resulting from low counts per minute (cpm).
Two standard enzyme kinetic assays were carried out to determine the mode of Akt1 inhibition by the triligand (Segel 1975). For these assays, the kinase activity is measured under varying substrate and triligand concentrations. The resulting data can be interpreted so that the nature of the competition between the triligand and the substrate for the relevant kinase binding site is determined. For example, if the triligand and ATP competed for the same binding pocket, the maximum velocity (Vmax) of the kinase would be unchanged while the Michaelis constant (KM) would increase. The plots can also be used as a means of determining the inhibition constant (Ki) of the triligand.
Akt-S473E-T308P was prepared by incubating 75 μg Akt-S473E with 1 μg PDK1 (Sigma) in the presence of 500 μM ATP in 1× reaction buffer (25 mM Tris-Cl (pH=7.5), 10 mM MgCl2, 2 mM DTT, 1× protease inhibitors (Roche), 1× phosphatase inhibitors (Roche)). The phosphorylation reaction proceeded for 40 minutes at room temperature followed by addition of 25 mM EDTA. The quenched reaction was added to 40 μL Anti-FLAG M2 agarose (Sigma) and allowed to bind for 2 hr at 4° C. The resin was washed in FLAG Wash Buffer (20 mM HEPES (pH=7.4), 150 mM NaCl, 1× protease inhibitors (Roche), 1× phosphatase inhibitors (Roche)) and the Akt1-S473E-T308P eluted with FLAG Elution Buffer (FLAG wash buffer+0.15 mg/mL 3×FLAG peptide) for 30 minutes at room temperature. The concentration of protein was determined by Bradford assay.

GSK3β = target: T3, GSK3β (Homo sapiens, UniProt P49841); experiment: Specificity ELISA, immobilized ligand probed with His-tagged kinases; settings: A450 normalized to Akt1-S473E binding
T3 construct: a set of His-tagged active protein kinase domains from the AGC family; purchased Invitrogen
Protocol: as §1, §2, §3, §4

Akt-S473E [3] = experiment: ELISA with immobilized Akt-S473E, relative affinity of biotinylated ligands; type: binding, H. sapiens; settings: triligand versus biligand
Protocol: Akt-S473E was immobilized on Ni-NTA plates and incubated with varying concentrations of biotinylated peptide. All values were normalized to the binding observed at saturation.
The affinity of the anchor ligand, biligand, and triligand developed in Example 1 was determined by ELISA with immobilized Akt-S473E.
3 μg of Akt-S473E was added to each well in a HisSorb Ni-NTA plate (Qiagen) in 50 μL of ELISA blocking buffer (25 mM Tris-Cl (pH=7.5), 150 mM NaCl, 10 mM MgCl2, 0.1% (v/v) Tween-20, and 4 mg/mL BSA). 50 μL of imidazole blocking buffer (25 mM Tris-Cl (pH=7.5), 150 mM NaCl, 10 mM MgCl2, 0.1% (v/v) Tween-20, 100 mM imidazole, and 4 mg/mL BSA) was added to the control wells. After 18 hours at 4° C., the wells were washed with ELISA blocking buffer and 50 μL of each ligand dilution was added in ELISA blocking buffer. The ligands were bound at 4° C. for 120 minutes followed by three washed in ELISA blocking buffer. 50 μL of horseradish peroxidase-conjugated streptavidin (SA-HRP, Thermo) was added (1:5000 dilution in ELISA blocking buffer) and incubated for 70 minutes at 4° C. […] 50 μL of peroxidase substrate (KPL) was added to generate the final signal which was quenched in 1 M H2SO4 and quantitated on a 96-well plate reader at X=450 nm. The Net A450 was calculated by subtracting the A450 of each blank well (No Akt-S473E) from the experimental well. […]

Akt [4] = experiment: Immunoprecipitation of Akt from OVCAR3 cell lysates with immobilized ligands; type: binding; settings: EGF and insulin induced or control, Western blot with pan-Akt antibody
Protocol: A representative 12% gel stained with Coomassie and imaged. Lane 1: Lysate, Lane 2: Anchor resin, Lane 3: Biligand resin, Lane 4: Triligand resin, Lane 5: 5G3 mAb resin.
After 18 hours at 4° C., resins were washed exhaustively, eluted with SDS-PAGE sample buffer, and analyzed by Western blotting. 1. Blank resin, 2. Anchor, 3. Biligand, 4. Triligand, 5. [5G3] mAb, L. lysate.
For the IP experiments, the anchor, biligand, and triligands were immobilized on streptavidin-agarose, and each resin was panned with OVCAR3 cell lysates obtained from untreated cells or cells stimulated with a combination of epidermal growth factor (EGF) and insulin.
OVCAR3 cells were grown in RPMI-1640 media containing 10% fetal bovine serum, penicillin, and streptomycin. Passage 4 cells were grown to ˜60% confluence and treated with insulin and EGF at final concentration of 10 μg/mL and 20 ng/mL respectively (induced) or mock treated (control). Cells were grown for an additional 24 hours and then lysed with lysis buffer (10 mM Tris-Cl (pH=7.5), 100 mM NaCl, 1% (v/v) Triton X-100, 0.1% SDS (w/v), 0.5% deoxycholate, 1 mM DTT, 1 mM EDTA, 1× PhosStop phosphatase inhibitors (Roche), 1× Complete protease inhibitors (Roche). Cell lysate protein concentrations were determined by Bradford assays. […]

Akt-S473E [5] = settings: [2H10] antibody directed toward the C-terminus
Description: Immobilized anchor, biligand, and triligand were probed with varying concentrations of […]. Binding was detected by an anti-Akt1 monoclonal antibody ([2H10]) followed by an anti-mouse secondary antibody-HRP conjugate. The fraction bound was normalized and plotted against the concentration of Akt-S473E on a log scale.
The C-terminus is effectively on the “backside” of the kinase domain, opposite the active site.

MEK1 = MEK1 (Homo sapiens, UniProt Q02750); settings: A450 normalized to Akt1-S473E binding
Protocol: as §1, §2
as §3, with “After 10 minutes at 4° C., the wells were washed three times with Akt blocking buffer and blocked overnight in 5% non-fat milk.” left out
The wells were washed three times in Akt blocking buffer and 50 μL of active protein was applied to each well. […] The A450 measured on a 96-well plate reader. […] The mean value for the triplicates was calculated and plotted and the error bars were generated from the standard error of the mean (GraphPad Prism).

T1 sequence (P31751 whole entry): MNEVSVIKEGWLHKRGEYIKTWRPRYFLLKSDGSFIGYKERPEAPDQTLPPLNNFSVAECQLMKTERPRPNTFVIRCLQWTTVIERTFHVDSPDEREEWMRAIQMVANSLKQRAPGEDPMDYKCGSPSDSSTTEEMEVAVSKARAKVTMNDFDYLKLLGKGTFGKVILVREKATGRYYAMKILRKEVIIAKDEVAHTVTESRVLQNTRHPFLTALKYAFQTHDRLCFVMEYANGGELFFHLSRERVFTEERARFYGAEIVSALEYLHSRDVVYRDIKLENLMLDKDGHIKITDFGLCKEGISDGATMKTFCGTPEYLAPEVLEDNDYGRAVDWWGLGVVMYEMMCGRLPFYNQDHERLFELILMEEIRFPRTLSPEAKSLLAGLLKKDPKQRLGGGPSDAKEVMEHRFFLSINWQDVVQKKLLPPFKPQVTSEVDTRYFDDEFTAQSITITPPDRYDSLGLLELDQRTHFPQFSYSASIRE
T2 sequence (P31751 whole entry, species assumed): as the sequence (P31751 whole entry) above
T3 sequence (P49841 56-340 limits assumed, species assumed): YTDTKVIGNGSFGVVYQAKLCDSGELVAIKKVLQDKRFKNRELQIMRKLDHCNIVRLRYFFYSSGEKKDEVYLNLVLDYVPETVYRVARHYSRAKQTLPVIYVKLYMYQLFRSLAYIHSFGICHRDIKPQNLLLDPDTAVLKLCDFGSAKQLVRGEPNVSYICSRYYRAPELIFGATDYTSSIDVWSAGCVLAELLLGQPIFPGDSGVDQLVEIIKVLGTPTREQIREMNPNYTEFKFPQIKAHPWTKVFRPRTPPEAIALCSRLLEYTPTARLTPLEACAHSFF
Sequence of MEK1 (Q02750 68-361 limits assumed, species assumed): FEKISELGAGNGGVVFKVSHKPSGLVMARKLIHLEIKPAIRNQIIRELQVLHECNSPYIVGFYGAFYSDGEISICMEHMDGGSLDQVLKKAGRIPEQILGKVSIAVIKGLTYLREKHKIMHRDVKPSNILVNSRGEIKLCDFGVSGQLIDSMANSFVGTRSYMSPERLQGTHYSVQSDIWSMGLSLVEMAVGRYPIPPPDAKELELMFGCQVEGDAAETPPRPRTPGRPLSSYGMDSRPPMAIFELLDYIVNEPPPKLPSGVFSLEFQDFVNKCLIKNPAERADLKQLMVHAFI

detection of Akt from cell lysate (Akt [1]): able to detect Akt from cell lysate
Molecule: monoligand: peptide wkvkl (SEQ ID NO:4) coupled to Ac2-Tz4-PEG2-Biotin; targeted against Ser474 of Akt2 ([dW][dK][dV][dK][dL]-NH2; not fully specified (N-terminus); printed as wkvkl; also: coupled to Ac2-Tz4-PEG2-Biotin)

Molecule: fluorescein-conjugated biligand: biligand with fluorescein derivative on the amino terminus of the secondary peptide (FIG. 17) (chain 1 C8N3-VFYRLGY-NH2; chain 2 FWFLRG-NH2; triazole I:N-II:N; not fully specified (N-terminus); reading uncertain; also: triazole linkage between chains, fluorescein on amino terminus of secondary peptide)
imaging of Akt localisation (Akt [2]): distinguishes cytoplasmic or membrane-bound AKT

effect on Akt kinase activity relative to DMSO (Akt2): activate Akt
Molecule: dimer of the n-terminal triligand: dimerized n-terminal triligand targeted against Ser474 of Akt2 (FIG. 36E) (peptide 1 [dPra][dW][dK][dV][dK][dL]; peptide 2 FYGNH; peptide 3 YYRFG; numbers in words are those of the source; also: dimer of triligand, chains 2 and 3 stereochemistry not given here)

Molecule: CCC(C)[C@H](NC(=O)[C@H](CCCNC(=N)N)NC(=O)[C@H](CCC(=O)O)NC(=O)[C@H](Cc1cnc[nH]1)NC(=O)[C@H](CCCNC(=N)N)NC(=O)C(CCCCCCCCn1cc(CCCC(=O)NC(CCCCCCCCn2cc(C[C@H](NC(C)=O)C(=O)N[C@@H](Cc3ccccc3)C(=O)N[C@@H](Cc3c[nH]c4ccccc34)C(=O)N[C@@H](Cc3ccccc3)C(=O)N[C@@H](CC(C)C)C(=O)NC(CCCNC(=N)N)C(=O)NCC(N)=O)nn2)C(=O)N[C@H](C(=O)N[C@@H](Cc2ccccc2)C(=O)N[C@@H](Cc2ccc(O)cc2)C(=O)N[C@@H](CCCNC(=N)N)C(=O)N[C@@H](CC(C)C)C(=O)NCC(=O)N[C@@H](Cc2ccc(O)cc2)C(=O)NCCNC(=O)CCCCC2SCC3NC(=O)NC32)C(C)C)nn1)NC(C)=O)C(N)=O (some centres unmarked) [triligand]
specificity / selectivity for Akt1 (Akt1): selectivity for Akt1 is clearly enhanced
Kd (Akt1-S473E): 200 nM
Ki (Akt1-S473E-T308P; V vs. [ATP], variable [Triligand], Dixon plot, mean ± standard deviation): 4000 nM
Ki (Akt1-S473E-T308P; V vs. [Peptide], variable [Triligand], Dixon plot, mean ± standard deviation): 2600 nM
Ki (Akt1-S473E-T308P; read-out: X-intercept of 1/Vmax(app) vs. [Triligand], varied ATP, wide error range based on the 95% CI): 5800 nM
Ki (Akt1-S473E-T308P; read-out: X-intercept of 1/Vmax(app) vs. [Triligand], varied peptide substrate): 1700 nM
X-intercept (−Ki′) of 1/KM(app) vs. [Triligand] (Akt1-S473E-T308P; varied peptide substrate): 3600 nM
Inhibition mode (Akt1-S473E-T308P; with respect to ATP): Noncompetitive
Inhibition mode (Akt1-S473E-T308P; with respect to peptide substrate): Uncompetitive
binding to GSK3β (GSK3β): significantly reduced
affinity gain (Akt-S473E [3]): 2-3 fold
immunoprecipitation of Akt (Akt [4]): somewhat increased immunoprecipitation of Akt relative to the biligand in induced cell lysates but not in the non-induced control cell lysate
overlap of binding site with anti-Akt1 antibody (Akt-S473E [5]): may partially overlap
off-target binding to MEK1 (MEK1): completely eliminated
